The source of these data is PubChem BioAssay AID686998 (Broad Institute, 2013).

In general, IC50 refers to the concentration that gives 50% inhibition.

Where “and” joins values, the source holds several entries; their conditions need not be identical. Identical values can stand only once. Inconclusive results are not listed. Calls of active or inactive are those of the source.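 How the source made its calls: active means falling signal with fitted half-maximal potency no higher than twice the top valid tested dose; inconclusive means poor fit quality, or flat fit spanning -70% to -30%; inactive means potency over limit, rising signal, or flat fit inside 30%.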

The experiment concerns Cryptococcus neoformans growth, Alamar Blue, 24 h. As to the kind of experiment: Cryptococcus neoformans growth inhibition, dose response, Alamar Blue, cherry-picks (AID 686998).

For `CNC[C@H]1Oc2cc(Br)ccc2S(=O)(=O)N([C@H](C)CO)C[C@H]1C`, the IC50 is > 70 µM (inactive). Then `Cc1ccccc1NC(=S)NC(=O)CCc1ccccc1`, with 5.62 µM; and `CC(NC(=O)COc1ccccc1-c1ccccc1)c1ccccc1` (stereo not drawn), with 2.53 µM; and `CNC(=O)CN(c1ccc(OC)cc1)S(=O)(=O)c1ccc(F)cc1`, with > 70 µM (inactive). In the case of `O=C(COc1ccccc1)NCc1ccccc1` it was 2.84 µM. `COc1ccc(NC(=S)NCc2ccccc2Cl)c(OC)c1`: the IC50 was 43.4 µM.

In the case of `Cc1cc(C)c2nc(N3CCN(C(=O)c4cccs4)CC3)sc2c1`, the IC50 is 21.9 µM.

In the case of `C[C@@H]1CN([C@H](C)CO)C(=O)Cc2cc(NC(=O)CCCCCC(=O)Nc3ccccc3N)ccc2O[C@H]1CN(C)C(=O)Nc1ccccc1`, the half-inhibitory concentration (IC50) was 4.69 µM. Then `C[C@@H]1CCCCO[C@@H](CN(C)C(=O)NC2CCCCC2)[C@H](C)CN([C@@H](C)CO)C(=O)c2cc(NS(=O)(=O)c3cn(C)cn3)ccc2O1`, with 44.3 µM; and `COc1ccc(C(=O)NC(=S)Nc2ccccc2N2CCOCC2)cc1[N+](=O)[O-]`, with 26.1 µM; and `CCCC[C@@H]1CNC(=S)N1CCc1cccc(F)c1`, with 1.29 µM. Then `CC[C@H](C)[C@@H]1NC(=O)CNC(=O)c2csc(n2)[C@H](C(C)(C)O)OC(=O)C(C)(C)[C@H](CCCC(C)(Cl)Cl)OC(=O)c2csc1n2`, with 2.16 µM; and `Fc1cccc(CCN2C(=S)NC[C@@H]2Cc2ccccc2)c1`, with 7.13 µM. In the case of `CCC(=O)N1[C@H](CN(C)C(C)=O)[C@@H](c2ccc(C3=CCCCC3)cc2)[C@@H]1CO` it was 40.4 µM; in that of `COc1ccc(CN(C)C[C@H]2Oc3ccc(NS(C)(=O)=O)cc3CC(=O)N([C@@H](C)CO)C[C@H]2C)cc1`, 39.9 µM; in that of `O=C(NC(=S)Nc1ccc(Br)cc1)C1CCC1`, 15.8 µM.

Consider `CO[C@@H]1CN(C)C(=O)c2cc(NC(=O)C3CCOCC3)ccc2OC[C@H](C)NC[C@@H]1C`, for which the IC50 was 67.4 µM.

In the case of `COC(=O)C1=C(C)N(CC(C)C)C(=S)NC1c1ccc(Cl)cc1` (stereo not drawn), the IC50 is 9 µM and 18 µM.

For `COC(=O)C1=C(C)N(Cc2ccc(Br)cc2)C(=S)NC1c1cccc(Cl)c1` (stereo not drawn), the IC50 is 5.98 µM. In the case of `CN1C[C@@H]2C(c3ccc(C(F)(F)F)cc3)C3(c4ccccc4)CC2(C3)[C@H]1c1ccccc1` (stereo partly drawn) it was 11.2 µM; in that of `COC(=O)C1=C(C)N(Cc2ccc(Br)cc2)C(=S)NC1c1ccc(F)cc1` (stereo not drawn), 5.35 µM. As for `CCC(C)c1ccc(NC(=S)N2CCN(c3ccccn3)CC2)cc1` (stereo not drawn), the IC50 was 17.5 µM. In the case of `COC(=O)C1=C(C)N(Cc2ccc(Br)cc2)C(=S)NC1c1ccccc1` (stereo not drawn) it was 13.1 µM; in that of `O=C(C[C@H]1CC[C@H]2[C@@H](COC[C@H](O)CN2C(=O)Nc2ccc3c(c2)OCO3)O1)N1CCN(c2ccccc2)CC1`, > 70 µM (inactive); in that of `O=C(NC(=S)Nc1ccccc1N1CCCC1)c1ccccc1[N+](=O)[O-]`, 1.42 µM. Then `C[C@@H]1CN([C@@H](C)CO)C(=O)c2cc(-c3cncnc3)cnc2O[C@H]1CN(C)C(=O)CN1CCOCC1`, with 42.4 µM. Then `COC(=O)C1=C(C)N(Cc2ccccc2)C(=S)NC1c1ccc(Br)cc1` (stereo not drawn), with 10.2 µM; and `COC(=O)C1=C(C)N(Cc2ccc(F)cc2)C(=S)NC1c1cccc(OC)c1` (stereo not drawn), with 31 µM; and `O=C(CCN1CCCCC1)NCC[C@@H]1CC[C@H](NC(=O)c2ccc(F)cc2)[C@@H](CO)O1`, with > 70 µM (inactive).

As to `CCOC(=O)CNC(=O)CSc1ncnc2c1cnn2-c1ccc(Cl)cc1`, the IC50 was 67.1 µM. In the case of `CCC(=O)Nc1ccc2c(c1)OC[C@H](C)N(C(=O)c1ccc(F)cc1)C[C@@H](C)[C@@H](OC)CN(C)C2=O` it was 48.2 µM. In the case of `Cc1c(C(=O)NC(=S)Nc2ccc(N3CCOCC3)cc2)cccc1[N+](=O)[O-]` it was 34.7 µM; in that of `C[C@H]1CN([C@@H](C)CO)C(=O)c2cc(-c3ccccc3)cnc2O[C@@H]1CN(C)C(=O)c1ccccn1`, 42.3 µM. Then `COc1ccc(NC(=O)c2cn(C)c(=O)c3cc(OC)c(OC)cc23)c(OC)c1`, with > 70 µM (inactive); and `COC(=O)C1=C(C)N(CC(C)C)C(=S)NC1c1ccc(F)cc1` (stereo not drawn), with 20.3 µM; and `CCC(=O)Nc1ccc2c(c1)C(=O)N(C)C[C@H](OC)[C@@H](C)CN[C@H](C)CO2`, with > 70 µM (inactive). As for `CCC(C)(C(=O)Nc1ccccc1C)N(C(=O)CNC(C)=O)c1ccccc1C` (stereo not drawn), the IC50 is below 0.26 µM. On to `COC(=O)C1=C(C)N(Cc2ccc(Cl)cc2)C(=S)NC1c1ccc(F)cc1` (stereo not drawn), for which the IC50 is 14.8 µM and 20.9 µM. In the case of `Cc1ccc(NC(=S)Nc2ccc(Cl)c(Cl)c2)c(OC(F)F)c1` it was 20.6 µM; in that of `CC(C)CC#Cc1cnc2c(c1)C(=O)N([C@@H](C)CO)C[C@@H](C)[C@@H](CN(C)C(=O)c1cccc(F)c1)O2`, 45.8 µM. In the case of `C[C@H]1CN([C@@H](C)CO)C(=O)c2cc(C#CC3(O)CCCC3)cnc2O[C@@H]1CN(C)Cc1cccnc1` it was > 70 µM (inactive); in that of `CO[C@@H]1CN(C)C(=O)c2ccc(NS(=O)(=O)c3ccc(Oc4ccccc4)cc3)cc2OC[C@H](C)NC[C@H]1C`, 3.78 µM; in that of `CC(C)NC(=O)Nc1ccc2c(c1)CC(=O)N([C@H](C)CO)C[C@H](C)[C@@H](CN(C)C(=O)Nc1ccc3c(c1)OCO3)O2`, > 70 µM (inactive). Turning to `COC(=O)C1=C(C)N(CC(C)C)C(=S)NC1c1cccc(F)c1` (stereo not drawn), the IC50 is 23.8 µM and 46.8 µM.

Take `COc1cccc(NC(=S)N2CCC(Cc3ccccc3)CC2)c1`: the IC50 is 8.22 µM.

With `Cc1ccc2c(C)c(C(=O)N3CCN(Cc4ccccn4)CC3)oc2c1C`, the IC50 was 67.4 µM. Then `COC(=O)C1=C(C)N(Cc2ccccc2)C(=S)NC1c1cccc(OC)c1` (stereo not drawn), with 32.5 µM; and `CCOC(=O)NC(=S)Nc1ccc(C(C)(C)C)cc1`, with 7.22 µM; and `C[C@H](CO)N1C[C@H](C)[C@H](CN(C)CC2CCCCC2)Oc2c(NS(C)(=O)=O)cccc2C1=O`, with 56.4 µM. In the case of `O=C(NC(=S)NCC1COc2ccccc2O1)c1ccccc1` (stereo not drawn) it was 11 µM. In the case of `COC(=O)C1=C(C)N(Cc2ccc(Cl)cc2)C(=S)NC1c1ccccc1` (stereo not drawn) it was 10.8 µM; in that of `Cc1ccc(C(=O)Nc2ccc3ncccc3c2)cc1`, 24 µM; in that of `C[C@@H]1CN([C@H](C)CO)S(=O)(=O)c2ccc(-c3ccccc3)cc2O[C@H]1CN(C)C(=O)C1CCCCC1`, 65.5 µM.

Turning to `COC(=O)C1=C(C)N(Cc2ccccc2)C(=S)N[C@H]1c1cccc(F)c1`, the IC50 is 13.7 µM. In the case of `CCC(=O)N1[C@H](CO)[C@@H](c2ccc(-c3cccnc3)cc2)[C@@H]1CN(C)C(C)=O` it was 33.6 µM; in that of `COc1cc(NC(=O)CN2CCN(S(=O)(=O)c3ccc(C(C)C)cc3)CC2)cc(OC)c1`, 59.4 µM; in that of `COC(=O)C1=C(C)N(Cc2ccc(Cl)cc2)C(=S)NC1c1ccc(OC)cc1` (stereo not drawn), 22.6 µM. Take `COc1cccc(S(=O)(=O)Nc2ccc3c(c2)[C@H]2C[C@@H](CC(=O)NC4CCCCC4)O[C@@H](CO)[C@H]2O3)c1`: the IC50 was 6.96 µM. As to `C[C@@H]1CN([C@H](C)CO)C(=O)CCCn2nncc2CO[C@H]1CN(C)Cc1cccc(C(F)(F)F)c1`, the IC50 was 4.17 µM. Then `CC(C)CC#Cc1ccc2c(c1)O[C@H](CN(C)C(=O)C1CCC1)[C@@H](C)CN([C@@H](C)CO)S2(=O)=O`, with 43.5 µM. In the case of `O=C(CN(c1ccccc1)S(=O)(=O)c1ccccc1)Nc1ccc(F)cc1` it was 40.8 µM; in that of `CC(C)NC(=O)Nc1ccc2c(c1)C(=O)N([C@H](C)CO)C[C@H](C)[C@H](CN(C)Cc1ccncc1)OCCCC[C@H](C)O2`, 54.6 µM. In the case of `COc1ccc(C(=O)NC(=S)Nc2ccccc2N2CCCCC2)cc1[N+](=O)[O-]` it was 1.49 µM; in that of `Cc1ccccc1-n1ncc2c(SCC(=O)N3c4ccccc4CC3C)ncnc21` (stereo not drawn), 0.28 µM; in that of `Cc1ccccc1S(=O)(=O)N[C@@H]1CC[C@H](CCNS(=O)(=O)c2cccc(F)c2)O[C@H]1CO`, > 70 µM (inactive). With `CCC(=O)N(C)C[C@@H]1Oc2cc(C#CC(C)(C)O)ccc2S(=O)(=O)N([C@@H](C)CO)C[C@H]1C`, the IC50 was 28.7 µM. In the case of `CCNC(=O)C[C@H]1CC[C@@H](NC(=O)NC2CCCCC2)[C@H](CO)O1` it was 53.1 µM.

On to `Cc1ccc(S(=O)(=O)N2CC[C@@H]3[C@H]2c2cc(-c4ccccc4F)ccc2N[C@@H]3CO)cc1`, for which the IC50 is 6.14 µM. In the case of `S=C(NCCCc1ccccc1)Nc1ccccc1`, the IC50 was 8.77 µM. Then `O=C(C1CCOCC1)N1CC[C@@H]2[C@@H](CO)Nc3ccc(Br)cc3[C@@H]21`, with > 70 µM (inactive); and `Cc1ccccc1NC(=O)C(NC1CCCCC1)C(C)C` (stereo not drawn), with 1.46 µM. For `COC(=O)C1=C(C)N(Cc2ccc(F)cc2)C(=S)NC1c1ccc(F)cc1` (stereo not drawn), the IC50 was 22.7 µM. Then `CC(C)NC(=O)N(C)C[C@@H]1Oc2c(NC(=O)C3CCCCC3)cccc2C(=O)N([C@@H](C)CO)C[C@@H]1C`, with 8.12 µM. Then `CCN1C(=S)N[C@@H](c2cccc(F)c2)C(C(=O)OC)=C1C`, with > 70 µM (inactive). Then `Cc1cc(C)c(NC(=O)CN2CCCCCC2)c(C)c1`, with 0.858 µM; and `COCC#Cc1cnc2c(c1)C(=O)N([C@@H](C)CO)C[C@H](C)[C@H](CN(C)C(=O)Nc1ccc(OC)cc1)O2`, with > 70 µM (inactive).

For `COc1ccc(CNC(=S)NCc2ccc(OC(C)C)cc2)cc1`, the half-inhibitory concentration (IC50) is 30.4 µM. Then `CNC[C@@H]1Oc2c(NS(=O)(=O)c3ccc(Cl)cc3)cccc2C(=O)N([C@H](C)CO)C[C@H]1C`, with > 70 µM (inactive); and `O=C(CSc1ncnc2c1cnn2-c1cccc(Cl)c1)NCC1CCCO1` (stereo not drawn), with 39.1 µM.

`CC(C)CC#Cc1cnc2c(c1)C(=O)N([C@@H](C)CO)C[C@H](C)[C@H](CN(C)C(=O)c1ccc3c(c1)OCO3)O2`: the IC50 was 5.12 µM. In the case of `CC=Cc1ccc2n(c1=O)C[C@@H]1[C@@H](CO)[C@H](C(=O)NCc3ccc4c(c3)OCO4)[C@H]2N1C(=O)C1CC1` (mixture of isomers) it was 23.3 µM; in that of `Cc1ccccc1-n1ncc2c(SCC(=O)NCc3cccs3)ncnc21`, 23.4 µM; in that of `CCCC(=O)N1CCC1(C)C(=O)Nc1cc(C)ccc1C` (stereo not drawn), > 70 µM (inactive).
